The term IC50 denotes the concentration that gives 50% inhibition. For orientation: ED50 means the midpoint of the dose-response relation. For orientation: melting point means the temperature, or range, at which the solid turns liquid.

Series [1] deals with Na+ channel (site 2), batrachotoxin-binding sites of VGSCs. To be noted: [3H]batrachotoxin displacement, rat cerebral cortex membranes, 8 concentrations 0.1-300 µM; read-out: Na+ Channel (Site 2) Affinity IC50 ± SEM.
Series [2] relates to maximal electroshock-induced tonic-clonic seizures in mice. Kind of series: Maximal electroshock-induced seizure (MES) test. The series is classed as in vivo. As to conditions: Mus musculus, ip, read-out: ED50 ± SEM, anticonvulsant activity (MES test). Here is the method: As the sodium channel ligands are recognized as antiepileptic agents and the affinity of 3 and 4 against VGSCs was still in the beneficial range, the investigated 1,2,4-triazole derivatives were examined for their antiepileptic potential using in the vivo model of tonic–clonic seizures in mice. The protective effect of compounds 3 and 4 against maximal electroshock-induced seizures (MES) was evaluated in a wide range of doses (producing 0% to 100% protection) that enabled us to calculate corresponding ED50 values.
Anticonvulsant activity of the investigated compounds was determined according to the same procedure as described in [11, 15, 18]. Adult albino mice weighing 20–25 g were used in the experiment. The animals were randomly divided into groups of 8 mice and kept in colony cages with free access to water and food. Test compounds were administered intraperitoneally, suspended in a 1% solution of Tween 80 in distilled water in a volume of 5 mL/kg. Electroconvulsions were produced with alternating current (0.2 s stimulus duration; 500 V, 50 Hz, 25 mA constant current) delivered through ear clip electrodes by a type 221 rodent shock generator (Hugo Sachs Elektronik, Freiburg, Germany). Absence of tonic extension of the hind limb was assumed as the criterion of anticonvulsant activity. ED50 values were calculated using Litchfield and Wilcoxon’s log-probit method.
In general terms: Protection in the maximal electroshock model is a classic sign of anticonvulsant action.

The test system of series [3] is motor coordination of mice. Kind of series: Rotarod test (acute neurotoxicity). To be noted: i.p. For orientation: Falling from the rotarod earlier than controls is read as motor impairment.
Procedure: Additionally, their possible acute neurotoxic effects were evaluated in the rotarod test.
Acute neurotoxicity of the compounds obtained after i.p. administration was tested in mice using the rotarod test according to the methodology described earlier [37].
Series [4] deals with maximal electroshock-induced tonic-clonic seizures in mice. Set-up: method as in PMID 30594731. As to conditions: cited from earlier work.
For series [5], the target named is Na+ channel (site 2), batrachotoxin-binding sites of VGSCs. To be noted: cited from earlier work.

Read-outs that look alike come from different tables or passages of the source.

As to `CCCCCCn1c(CCc2cccc(Cl)c2)n[nH]c1=S` [Compound 4, 5-[2-(3-Chlorophenyl)ethyl]-4-hexyl-2,4-dihydro-3H-1,2,4-triazole-3-thione], the melting point lay in the range of 84 to 86 °C. In series [1], the IC50 was determined as 18.9 ± 0.3 µM. Besides, the ED50 in series [2] (pretreatment time 15 min) came out at 115 ± 7.6 mg/kg. Further, the ED50 in series [2] (pretreatment time 30 min) stood at 129 ± 21.1 mg/kg. Besides, in series [2] (pretreatment time 60 min), the ED50 was 215 ± 21.1 mg/kg. In addition, the ED50 in series [2] (pretreatment time 120 min) is 255 ± 22.5 mg/kg. Further, in series [3] (pretreatment time 15 min), the “PI (TD50/ED50)” value is on record as 6.2. Moreover, the “PI (TD50/ED50)” value in series [3] (pretreatment time 30 min) amounted to 5.3. Besides, the “PI (TD50/ED50)” value in series [3] (pretreatment time 60 min) came to 3.2. The “PI (TD50/ED50)” value in series [3] (pretreatment time 120 min) was determined as 1.9. Besides, the “median toxic doses (TD50) in the rotarod test” value in series [3] (pretreatment time not stated, highest value of the series) was at most 710.5 mg/kg.

Take `CCCC(CCC)C(=O)O` [Valproate]: the “ED50 ± SEM, anticonvulsant activity (MES test)” value is 189.0 ± 17.3 mg/kg in series [4] (pretreatment time 15 min), 216.9 ± 9.4 mg/kg in series [4] (pretreatment time 30 min), 218.4 ± 18.9 mg/kg in series [4] (pretreatment time 60 min) and 246.6 ± 21.4 mg/kg in series [4] (pretreatment time 120 min).

As to `CCCCn1c(CCc2cccc(Cl)c2)n[nH]c1=S` [Compound 3, 4-Butyl-5-[2-(3-chlorophenyl)ethyl]-2,4-dihydro-3H-1,2,4-triazole-3-thione], the melting point was 102 to 104 °C. Further, in series [1], the IC50 is 11.9 ± 0.4 µM. Moreover, in series [2] (pretreatment time 15 min), the ED50 stood at 139 ± 31.4 mg/kg. Besides, the ED50 in series [2] (pretreatment time 30 min) stood at 96.6 ± 14.8 mg/kg. The ED50 in series [2] (pretreatment time 60 min) came to 148 ± 17.1 mg/kg. For the same compound, the ED50 in series [2] (pretreatment time 120 min) worked out at 195 ± 18.9 mg/kg. The “PI (TD50/ED50)” value in series [3] (pretreatment time 15 min) is 2.4. In addition, the “PI (TD50/ED50)” value in series [3] (pretreatment time 30 min) amounted to 3.4. In series [3] (pretreatment time 60 min), the “PI (TD50/ED50)” value is 2.3. Also, in series [3] (pretreatment time 120 min), the “PI (TD50/ED50)” value was found to be 1.7.

For the compound `CCCCCCn1c(Cc2cccc(Cl)c2)n[nH]c1=S` [Compound 2, 5-(3-chlorobenzyl)-4-hexyl-1,2,4-triazole-3-thione], in series [5] (read-out: IC50 (blocked the VGSCs)), the IC50 was 6.17 µM.

In the case of `CCCCn1c(Cc2cccc(Cl)c2)n[nH]c1=S` [Compound 1], the 50% inhibitory concentration (IC50) in series [5] (Figure 1, methylene-linker 3-chlorophenyl analogs, read-out: IC50 (VGSC affinity)) is 15.8 µM.

As to `COc1ccc(C(=O)O[C@H]2CC[C@@]3(C)[C@@H]4CC[C@H]5[C@]6(O)C[C@H](O)[C@@]7(O)[C@@H](CN8C[C@@H](C)CC[C@H]8[C@@]7(C)O)[C@]6(O)C[C@@]53O[C@]24O)cc1OC` [Veratridine, reference compound], in series [1], the IC50 amounted to 17.8 ± 0.9 µM.

Values taken from article PMC10343781, “Effect of Linker Elongation on the VGSC Affinity and Anticonvulsant Activity among 4-Alkyl-5-aryl-1,2,4-triazole-3-thione Derivatives” (Molecules, 2023).
